From ChEMBL document CHEMBL4145553, “Design, synthesis, and biological evaluation of novel amide and hydrazide based thioether analogs targeting Histone deacteylase (HDAC) enzymes” (Eur J Med Chem, 2018)
Activity calls are given as the source filed them. No cut-off for these calls is given here.

Experiments:
[1] = tested on: NCI-H23; test: Growth inhibition of human NCI-H23 cells assessed as cell growth at 10^-7 M incubated for 48 hrs by sulforhodamine B assay relative to control; type: functional; details: NCI-H23, 48 h, read-out: Activity
[2] = tested on: MDA-MB-435; test: Downregulation of HDAC8 mRNA expression in human MDA-MB-435 cells by qRT-PCR method; type: functional, cell-based
[3] = tested on: HCC 2998; test: Growth inhibition of human HCC2998 cells assessed as cell growth at 10^-4 M incubated for 48 hrs by sulforhodamine B assay relative to control; type: functional; details: HCC 2998, 48 h, read-out: Activity
[4] = tested on: OVCAR-8; test: Growth inhibition of human OVCAR8 cells assessed as cell growth at 10^-4 M incubated for 48 hrs by sulforhodamine B assay relative to control; type: functional; details: OVCAR-8, 48 h, read-out: Activity
[5] = tested on: HOP-62; test: Growth inhibition of human HOP62 cells assessed as cell growth at 10^-8 M incubated for 48 hrs by sulforhodamine B assay relative to control; type: functional; details: HOP-62, 48 h, read-out: Activity
[6] = tested on: MDA-MB-435; test: Cell cycle arrest in human MDA-MB-435 cells assessed as accumulation at S-phase by propidium iodide staining based flow cytometry (reference value: 26.46%); type: functional
[7] = target: Histone deacetylase 3 (Homo sapiens, UniProt O15379); test: Inhibition of HDAC3 (unknown origin) by ELISA
Chain of Histone deacetylase 3 (O15379 whole entry): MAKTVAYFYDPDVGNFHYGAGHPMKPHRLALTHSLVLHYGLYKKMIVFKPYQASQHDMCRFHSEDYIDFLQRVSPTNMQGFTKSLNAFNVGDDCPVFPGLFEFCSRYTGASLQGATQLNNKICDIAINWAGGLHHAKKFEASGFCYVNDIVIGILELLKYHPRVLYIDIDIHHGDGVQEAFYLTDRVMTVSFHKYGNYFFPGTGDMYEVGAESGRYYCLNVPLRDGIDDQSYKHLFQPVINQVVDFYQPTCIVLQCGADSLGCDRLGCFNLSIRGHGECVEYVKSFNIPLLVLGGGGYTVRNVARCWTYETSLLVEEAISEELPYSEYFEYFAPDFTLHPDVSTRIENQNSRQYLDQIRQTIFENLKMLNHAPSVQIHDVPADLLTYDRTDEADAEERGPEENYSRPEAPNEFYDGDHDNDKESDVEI

[8] = tested on: LOX IMVI; test: Growth inhibition of human LOXIMVI cells assessed as cell growth at 10^-6 M incubated for 48 hrs by sulforhodamine B assay relative to control; type: functional; details: read-out: Activity
[9] = tested on: HT-29; test: Growth inhibition of human HT-29 cells assessed as cell growth at 10^-4 M incubated for 48 hrs by sulforhodamine B assay relative to control; type: functional; details: HT-29, 48 h, read-out: Activity
[10] = tested on: RPMI-8226; test: Growth inhibition of human RPMI8226 cells incubated for 48 hrs by sulforhodamine B assay; type: functional; details: RPMI-8226, 48 h
[11] = tested on: ACHN; test: Growth inhibition of human ACHN cells assessed as cell growth at 10^-4 M incubated for 48 hrs by sulforhodamine B assay relative to control; type: functional; details: read-out: Activity
[12] = tested on: NCI-H226; test: Growth inhibition of human NCI-H226 cells assessed as cell growth at 10^-5 M incubated for 48 hrs by sulforhodamine B assay relative to control; type: functional; details: NCI-H226, 48 h, read-out: Activity
[13] = tested on: DU-145; test: Growth inhibition of human DU145 cells assessed as cell growth at 10^-8 M incubated for 48 hrs by sulforhodamine B assay relative to control; type: functional; details: DU-145, 48 h, read-out: Activity
[14] = tested on: A498; test: Growth inhibition of human A498 cells assessed as cell growth at 10^-4 M incubated for 48 hrs by sulforhodamine B assay relative to control; type: functional; details: A498, 48 h, read-out: Activity
[15] = tested on: A498; test: Growth inhibition of human A498 cells assessed as cell growth at 10^-8 M incubated for 48 hrs by sulforhodamine B assay relative to control; type: functional; details: A498, 48 h, read-out: Activity
[16] = tested on: A549; test: Growth inhibition of human A549/ATCC cells assessed as cell growth at 10^-6 M incubated for 48 hrs by sulforhodamine B assay relative to control; type: functional; details: A549, 48 h, read-out: Activity
[17] = tested on: SNB-75; test: Growth inhibition of human SNB75 cells assessed as cell growth at 10^-6 M incubated for 48 hrs by sulforhodamine B assay relative to control; type: functional; details: SNB-75, 48 h, read-out: Activity
[18] = tested on: HCT-116; test: Growth inhibition of human HCT116 cells assessed as cell growth at 10^-6 M incubated for 48 hrs by sulforhodamine B assay relative to control; type: functional; details: HCT-116, 48 h, read-out: Activity
[19] = tested on: MDA-MB-468; test: Growth inhibition of human MDA-MB-468 cells assessed as cell growth at 10^-6 M incubated for 48 hrs by sulforhodamine B assay relative to control; type: functional; details: MDA-MB-468, 48 h, read-out: Activity
[20] = tested on: UACC-257; test: Growth inhibition of human UACC257 cells assessed as cell growth at 10^-6 M incubated for 48 hrs by sulforhodamine B assay relative to control; type: functional; details: UACC-257, 48 h, read-out: Activity
[21] = tested on: HT-29; test: Growth inhibition of human HT-29 cells assessed as cell growth at 10^-5 M incubated for 48 hrs by sulforhodamine B assay relative to control; type: functional; details: HT-29, 48 h, read-out: Activity
[22] = tested on: T47D; test: Growth inhibition of human T47D cells incubated for 48 hrs by sulforhodamine B assay; type: functional
[23] = tested on: OVCAR-3; test: Growth inhibition of human OVCAR3 cells assessed as cell growth at 10^-6 M incubated for 48 hrs by sulforhodamine B assay relative to control; type: functional; details: OVCAR-3, 48 h, read-out: Activity
[24] = tested on: SN12C; test: Growth inhibition of human SN12C cells assessed as cell growth at 10^-8 M incubated for 48 hrs by sulforhodamine B assay relative to control; type: functional; details: read-out: Activity
[25] = tested on: 786-0; test: Growth inhibition of human 786-0 cells assessed as cell growth at 10^-6 M incubated for 48 hrs by sulforhodamine B assay relative to control; type: functional; details: 786-0, 48 h, read-out: Activity
[26] = tested on: IGROV-1; test: Growth inhibition of human IGROV1 cells assessed as cell growth at 10^-6 M incubated for 48 hrs by sulforhodamine B assay relative to control; type: functional; details: IGROV-1, 48 h, read-out: Activity
[27] = tested on: UACC-257; test: Growth inhibition of human UACC257 cells incubated for 48 hrs by sulforhodamine B assay; type: functional; details: UACC-257, 48 h
[28] = tested on: K562; test: Growth inhibition of human K562 cells assessed as cell growth at 10^-6 M incubated for 48 hrs by sulforhodamine B assay relative to control; type: functional; details: K562, 48 h, read-out: Activity
[29] = tested on: SR; test: Growth inhibition of human SR cells incubated for 48 hrs by sulforhodamine B assay; type: functional
[30] = tested on: OVCAR-8; test: Growth inhibition of human OVCAR8 cells assessed as cell growth at 10^-6 M incubated for 48 hrs by sulforhodamine B assay relative to control; type: functional; details: OVCAR-8, 48 h, read-out: Activity
[31] = tested on: MDA-MB-468; test: Growth inhibition of human MDA-MB-468 cells assessed as cell growth at 10^-5 M incubated for 48 hrs by sulforhodamine B assay relative to control; type: functional; details: MDA-MB-468, 48 h, read-out: Activity
[32] = tested on: COLO 205; test: Growth inhibition of human COLO205 cells assessed as cell growth at 10^-5 M incubated for 48 hrs by sulforhodamine B assay relative to control; type: functional; details: COLO 205, 48 h, read-out: Activity
[33] = read-out: LC50 (the source's name)
[34] = read-out: pLC50 (the source's name) (converted)

CCS/C(Nc1ccccc1)=C(\C#N)C(=O)N/N=C\c1ccc(Cl)cc1Cl
growth at 0.1 µM [1]: 97%
Activity [2]: Active
growth at 100 µM [3]: 35%
growth at 100 µM [4]: 20%
growth at 0.01 µM [5]: 93%
Activity [6]: 19.16%
IC50 [7]: 0.032 µM
growth at 1 µM [8]: 86%
growth at 100 µM [9]: 9%
GI50 ([10]; read-out: GI50): 3.68 µM
CC50 [10, 33]: > 100 µM
TGI ([10]; read-out: TGI): > 100 µM
GI50 ([10]; read-out: pGI50 (converted)): 3.72 µM
CC50 [10, 34]: > 100 µM
TGI ([10]; read-out: pTGI): > 100 µM
growth at 100 µM [11]: 29%
growth at 10 µM [12]: 27%
growth at 0.01 µM [13]: 105%
growth at 100 µM [14]: -2%
growth at 0.01 µM [15]: 91%
growth at 1 µM [16]: 92%
growth at 1 µM [17]: 76%
growth at 1 µM [18]: 89%
growth at 1 µM [19]: 88%
growth at 1 µM [20]: 92%
growth at 10 µM [21]: 11%
GI50 ([22]; read-out: GI50): 4.03 µM
CC50 [22, 33]: > 100 µM
TGI ([22]; read-out: TGI): > 100 µM
GI50 ([22]; read-out: pGI50 (converted)): 4.07 µM
CC50 [22, 34]: > 100 µM
TGI ([22]; read-out: pTGI): > 100 µM
growth at 1 µM [23]: 90%
growth at 0.01 µM [24]: 97%
growth at 1 µM [25]: 83%
growth at 1 µM [26]: 84%
GI50 ([27]; read-out: GI50): 25.7 µM
CC50 [27, 33]: > 100 µM
TGI ([27]; read-out: TGI): > 100 µM
GI50 ([27]; read-out: pGI50 (converted)): 25.7 µM
CC50 [27, 34]: > 100 µM
TGI ([27]; read-out: pTGI): > 100 µM
growth at 1 µM [28]: 47%
GI50 ([29]; read-out: GI50): 3.45 µM
CC50 [29, 33]: > 100 µM
TGI ([29]; read-out: TGI): > 100 µM
GI50 ([29]; read-out: pGI50 (converted)): 3.47 µM
CC50 [29, 34]: > 100 µM
TGI ([29]; read-out: pTGI): > 100 µM
growth at 1 µM [30]: 99%
growth at 10 µM [31]: -3%

CCS/C(Nc1ccccc1)=C(\C#N)C(=O)Nc1ccc(OC)cc1
growth at 0.1 µM [1]: 99%
Activity [2]: Active
growth at 100 µM [3]: 7%
growth at 100 µM [4]: 10%
growth at 0.01 µM [5]: 92%
Activity [6]: 19.26%
IC50 [7]: 0.064 µM
growth at 1 µM [8]: 89%
growth at 100 µM [9]: -8%
GI50 ([10]; read-out: GI50): 2.52 µM
CC50 [10, 33]: > 100 µM
TGI ([10]; read-out: TGI): > 100 µM
GI50 ([10]; read-out: pGI50 (converted)): 2.51 µM
CC50 [10, 34]: > 100 µM
TGI ([10]; read-out: pTGI): > 100 µM
growth at 100 µM [11]: 17%
growth at 10 µM [12]: 37%
growth at 0.01 µM [13]: 101%
growth at 100 µM [14]: -12%
growth at 0.01 µM [15]: 91%
growth at 1 µM [16]: 99%
growth at 10 µM [32]: 1%
growth at 1 µM [17]: 81%
growth at 1 µM [18]: 69%
growth at 1 µM [19]: 60%
growth at 1 µM [20]: 93%
growth at 10 µM [21]: 8%
GI50 ([22]; read-out: GI50): 4.08 µM
CC50 [22, 33]: > 100 µM
TGI ([22]; read-out: TGI): > 100 µM
GI50 ([22]; read-out: pGI50 (converted)): 4.07 µM
CC50 [22, 34]: > 100 µM
TGI ([22]; read-out: pTGI): > 100 µM
growth at 1 µM [23]: 90%
growth at 0.01 µM [24]: 97%
growth at 1 µM [25]: 83%
growth at 1 µM [26]: 79%
GI50 ([27]; read-out: GI50): 21.2 µM
CC50 [27, 33]: > 100 µM
TGI ([27]; read-out: TGI): > 100 µM
GI50 ([27]; read-out: pGI50 (converted)): 21.4 µM
CC50 [27, 34]: > 100 µM
TGI ([27]; read-out: pTGI): > 100 µM
growth at 1 µM [28]: 29%
GI50 ([29]; read-out: GI50): 1.54 µM
CC50 [29, 33]: > 100 µM
TGI ([29]; read-out: TGI): > 100 µM
GI50 ([29]; read-out: pGI50 (converted)): 1.55 µM
CC50 [29, 34]: > 100 µM
TGI ([29]; read-out: pTGI): > 100 µM
growth at 1 µM [30]: 98%
growth at 10 µM [31]: -9%
